# “Also recorded” adds a separate entry of the source.
# Columns and labels:
# [1] = biological target: T1, EXO1 (Homo sapiens, UniProt Q9UQ84); assay: Thermal shift assay; assay type: binding; conditions: maximum shift in Tm of EXO1 vs DMSO, increasing inhibitor concentrations
# T1 construct: made in house
# T1 sequence (Q9UQ84 1-846): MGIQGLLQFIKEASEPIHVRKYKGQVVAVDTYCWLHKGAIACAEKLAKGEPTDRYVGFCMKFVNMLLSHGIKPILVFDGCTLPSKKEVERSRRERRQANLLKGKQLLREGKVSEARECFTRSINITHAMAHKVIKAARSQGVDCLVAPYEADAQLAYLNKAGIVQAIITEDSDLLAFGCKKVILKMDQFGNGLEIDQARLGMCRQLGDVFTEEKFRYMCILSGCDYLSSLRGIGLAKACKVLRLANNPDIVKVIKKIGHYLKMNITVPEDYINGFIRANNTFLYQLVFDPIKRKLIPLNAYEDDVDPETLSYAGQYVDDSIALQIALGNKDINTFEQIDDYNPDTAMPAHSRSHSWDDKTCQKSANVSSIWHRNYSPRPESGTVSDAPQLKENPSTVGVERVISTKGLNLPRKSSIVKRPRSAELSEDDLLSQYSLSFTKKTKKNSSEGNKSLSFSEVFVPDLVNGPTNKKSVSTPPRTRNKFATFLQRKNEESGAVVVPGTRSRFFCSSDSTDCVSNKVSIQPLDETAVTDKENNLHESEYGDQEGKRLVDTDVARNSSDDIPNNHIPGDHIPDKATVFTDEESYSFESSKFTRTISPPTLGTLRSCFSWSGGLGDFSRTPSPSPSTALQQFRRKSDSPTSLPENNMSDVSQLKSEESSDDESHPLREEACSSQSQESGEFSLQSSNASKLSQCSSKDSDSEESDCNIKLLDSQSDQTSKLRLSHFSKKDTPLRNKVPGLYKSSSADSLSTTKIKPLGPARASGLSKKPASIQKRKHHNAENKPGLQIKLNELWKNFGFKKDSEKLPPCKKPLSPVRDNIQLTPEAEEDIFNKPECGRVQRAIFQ
# Method: To assess for changes in the thermal stability of EXO1 protein in response to treatment with candidate small molecule inhibitors or DMSO (vehicle control), the thermal shift assay (Applied Biosystems Protein Thermal Shift Dye Kit, Cat. #4461146) was utilized. The protein melt reaction mix consisted of freshly prepared 10× thermal shift dye, purified EXO1 enzyme (1 μg/uL), thermal shift buffer, DMSO or inhibitors, and sterilized Milli-Q water. A drug-free supermix was premade and dispensed in 96-well PCR plates followed by the addition of DMSO or inhibitors with increasing concentration. The reaction plate was heated from 10 to 98 °C at a rate of 0.5° per 10 s cycle, and the fluorescence intensity of individual wells was measured at 490/530 nm using a BioRad CFX96 Touch Real-Time PCR System. The fluorescence measurements of three technical replicates per treatment condition were then averaged to calculate melting temperature shift (ΔT m) as a readout for compound binding affinity.
# [2] = biological target: T2, EXO1 D225A (Homo sapiens, UniProt Q9UQ84, D225A); assay: In vitro exonuclease activity of mutant with inhibitors; assay type: biochemical; conditions: EXO1 25 nM, DNA substrate 250 nM; C200 0-5 μM
# T2 construct: The N-terminal domain of human EXO1 (hEXO1) (residues 1–345) was cloned into the pET28b vector; made in house; host or cells: E. coli BL21(DE3) and Rosetta 2(DE3)
# Method: (§1) Simultaneously, we tested the effect of each point mutation on the in vitro exonuclease activity. Most mutations in site 1 result in some loss of enzymatic activity compared to WT EXO1 (Figure S13; WT:Figure S13a), particularly K85A and D225A (Figure S13b,f). […] However, at concentrations of 20 and 40 μM, the mutants (K85A and R92A) behaved more like WT (Figure b).
# (§2) In both panels a and b, DMSO without inhibitors was used as a control, and its relative binding activity was set equal to 1.0. The EXO1 enzyme concentration was 25 nM, and the DNA substrate concentration was 250 nM. The values shown are the mean ± S.D. of three independent experiments.
# (§3) The N-terminal domain of human EXO1 (hEXO1) (residues 1–345) was cloned into the pET28b vector. The following mutations were introduced via site-directed mutagenesis based on the findings of molecular docking analysis: K85A, E89A, R92A, I125A, D225A, K292A, and K294A (oligonucleotide primers listed in Table S1) following the established protocol.
# [3] = biological target: T3, EXO1 I125A (Homo sapiens, UniProt Q9UQ84, I125A); assay: as above; assay type: biochemical; conditions: EXO1 25 nM, DNA substrate 250 nM
# T3 construct: The N-terminal domain of human EXO1 (hEXO1) (residues 1–345) was cloned into the pET28b vector; made in house; host or cells: E. coli BL21(DE3) and Rosetta 2(DE3)
# Method: as §1, §2, §3
# [4] = biological target: T4, EXO1 E89A (Homo sapiens, UniProt Q9UQ84, E89A); assay: as above; assay type: biochemical; conditions: EXO1 25 nM, DNA substrate 250 nM
# T4 construct: The N-terminal domain of human EXO1 (hEXO1) (residues 1–345) was cloned into the pET28b vector; made in house; host or cells: E. coli BL21(DE3) and Rosetta 2(DE3)
# Method: as §1, §2, §3
# T2 sequence (Q9UQ84 1-345 D225A): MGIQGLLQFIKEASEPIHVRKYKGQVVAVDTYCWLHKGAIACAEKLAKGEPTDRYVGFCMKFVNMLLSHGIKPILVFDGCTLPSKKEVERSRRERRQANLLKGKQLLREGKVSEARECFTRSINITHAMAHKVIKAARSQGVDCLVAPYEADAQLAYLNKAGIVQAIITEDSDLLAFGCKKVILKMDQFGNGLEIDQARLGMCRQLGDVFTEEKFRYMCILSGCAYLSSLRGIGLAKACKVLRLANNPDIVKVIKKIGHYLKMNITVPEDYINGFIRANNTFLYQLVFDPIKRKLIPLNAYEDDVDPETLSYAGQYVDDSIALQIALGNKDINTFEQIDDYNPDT
# T4 sequence (Q9UQ84 1-345 E89A): as the sequence (Q9UQ84 1-345 D225A) above, with E89A, A225D counted along it
# T3 sequence (Q9UQ84 1-345 I125A): as the sequence (Q9UQ84 1-345 D225A) above, with I125A, A225D counted along it
smiles,measurement,setting,value
COC(=O)c1nc(-c2ccc(OC)cc2)nc(O)c1O [C200],ΔT m,[1],~1 °C
same,inhibitory activity against EXO1 D225A mutant vs WT,[2],partially lost its inhibitory effect; also recorded: abolished
same,inhibitory activity against EXO1 I125A mutant vs WT,[3],did not have a significant
same,inhibitory activity against EXO1 E89A mutant vs WT,[4],did not have a significant

# — article PMC12186255, “Discovery and Characterization of Small Molecule Inhibitors Targeting Exonuclease 1 for Homologous Recombination-Deficient Cancer Therapy” (ACS Chemical Biology, 2025)
